Experimental data reported in patent US8163803B2 (Fundação Oswaldo Cruz—FIOCRUZ, priority 2004, dated 2012).

Tests used:
[1] = tested on: Na^+ currents in GH3 cells; test: Tonic block of Na+ currents in GH3 cells, whole cell patch clamp; assay type: cell-based, Rat; details: for IC50: GH3 cells, holding potential −80 mV to +60 mV step pulse, read-out: IC50, blockade of Na+ currents
Procedure: Ion channel currents were recorded by means of a patch clamp technique. The cells cultured on the cover glass were placed in a chamber fixed to a microscope stage and continuously perfused with extracellular Saline (A) solution (in mM); 150 NaCl, 5 KCl, 1 MgCl2, 0.01 CaCl2, 1 EGTA, 10 HEPES, 2 BaCl2, 0.1 CdCl2, pH 7.4 at room temperature (22-25° C.) adjusted with NaOH. The cells were observed using phase contrast mode under an inverted microscope (Axiovert 100, Carl Zeiss, Oberkochem, D Germany). Tight-seal (>10 GΩ) whole cell voltage-clamp recordings were performed with an Axopatch-1D amplifier (Axon Instruments, San Mateo, Calif.). […] Fifteen minutes after rupture of the patch membrane, we started to record ion channel currents. Pulse protocols and data acquisition were controlled by Digidata 1320 interface (Axon Instruments, Palo Alto, Calif.), and acquired on a personal computer using Clampex 9 software. The Na^+ current recordings were filtered at 1 kHz and sampled at 8 kHz. About 26% of series resistance was electronically compensated. Drugs were applied to the recording chamber by gravity. Perfusion rate was maintained at 0.8-1.1 ml/min and bath volume was of 50 μl. […] Voltage-gated Na^+ currents were recorded from these cells in the presence or absence of treatment.

[2] = tested on: sensitized experimental animals; test: Pulmonary eosinophil infiltrate after ovoalbumin aerosol challenge, bronchoalveolar lavage count; assay type: in vivo; details: 5% aerosol, 30 min, with ovoalbumin 1% plus 3 aerosolizations every 3 h; lavage 24 h after challenge
Procedure: The animals were sensitized through a cutaneous injection of a mixture with 50 μg ovoalbumin and 5 mg Al(OH)3, and challenged with ovoalbumin (1%) aerosol for 30 min 14 days afterwards, according to what was previously described. In order to avoid death of animals by anaphylatic asphyxia, all of them were treated intraperitonially with the anti-histaminic difenidramine (30 mg/kg) 30 minutes before being challenged.
Bronchoalveolar Lavage and Eosinophils Counting
All the animals were anesthesized terminally through an intraperitonial injection of pentobarbital (200 mg/kg) 24 h after the antigenic challenge, to wash the bronchoalveolar space according to the techniques previously described. Total leukocyte count were done after dilution of bronchoalveolar lavage samples in Turk liquid and counting in the Neubauer chamber with the assistance of direct-light microscopy. The differential eosinophil count was done also under direct-light microscopy, after centrifugation of samples of the lavage as well as its exposure to specific dyestuff (May-Grunwald-Giemsa dye).
The averages± standard error of the mean of the groups investigated were analyzed based on statistics through the test of variance analysis (ANOVA), followed by the Newman-Keuls-Student test.
Values, expressed in terms of “number of eosinophils×10^6/lavage” are presented as average±SEM in at least 7 animals. In the negative control group, animals previously sensitized were artificially-challenged through exposure to sterile saline (NaCl, 0.9%) aerosol. […] “*” represents the difference statistically significant (P<0.05), when the group treated and the positive control group were compared.

patients = details: long-term treatment, nebulized; cited from earlier work

## CCN(CC)CC(=O)Nc1ccc(C)cc1C [JM24-1, 2-dyethylamine-2′,4′-acetoxylidide]
[1]
  IC50: 5200 µM
[1]; ratio to lidocaine IC50
  50% inhibitory concentration, times higher than lidocaine: 29 times
[2]
  blocking the accumulation of eosinophils in the bronchoalveolar area: equipotent to lidocaine

## CCN(CC)CC(=O)Nc1c(C)cccc1C [Lidocaine, 1-(2-(dyethylamine)N-dymethylfenyl)-acetamide, reference compound]
[1]
  IC50: 180 µM
[2]
  blocking the accumulation of eosinophils in the bronchoalveolar area: clearly sensitive to lidocaine treatment
patients
  patients with relief of asthma symptoms and diminished dependency on steroidal anti-inflammatory treatment: 20 out of 24
